Assay results reported in ChEMBL document CHEMBL4270528, “Design, synthesis, molecular modeling and anti-proliferative evaluation of novel quinoxaline derivatives as potential DNA intercalators and topoisomerase II inhibitors” (Eur J Med Chem, 2018).
pIC50: −log10 of the molar value. Activity calls are given as the source filed them. The calls are words filed in the database; no cut-off is given here.

Tests used:
HepG2 = assay: Antiproliferative activity against human HepG2 cells after 48 hrs by neutral red assay; format: functional, cell-based; details: HepG2, 48 h
HEp-2 = assay: Antiproliferative activity against human Hep2 cells after 48 hrs by neutral red assay; format: functional, cell-based; details: HEp-2, 48 h
Caco-2 [1] = assay: Antiproliferative activity against human Caco2 cells after 48 hrs by neutral red assay; format: functional, cell-based; details: Caco-2, 48 h
[2] = biological target: T1, DNA topoisomerase 2-alpha (Homo sapiens, UniProt P11388); assay: Inhibition of human topoisomerase 2 using supercoiled pHOT1 DNA as substrate after 30 mins by agarose gel electrophoresis
Calf thymus DNA = assay: Inhibition of methyl green binding to calf thymus DNA incubated for 24 hrs in dark by spectrophotometric method; format: nucleic-acid assay, Bos taurus
Escherichia coli = assay: Induction of Escherichia coli bacteriophage lambda DNA intercalation assessed as inhibition of Sal 1/EcoR 1-mediated DNA cleavage after 2 hrs by agarose gel electrophoresis
Caco-2 [3] = assay: Induction of apoptosis in human Caco2 cells assessed as necrotic cells at 0.5 uM after 24 hrs by Annexin V-FITC/propidium iodide staining based flow cytometry (reference value: 1.59%); format: functional
Caco-2 [4] = assay: Down regulation of Bcl-2 mRNA expression level in human Caco2 cells by qRT-PCR method; format: functional, cell-based
[5] = biological target: T1, DNA topoisomerase 2-alpha; assay: Inhibition of recombinant human topoisomerase 2 assessed as reduction in relaxation of supercoiled pBS-SK(+) DNA at 10 to 50 uM after 30 mins by agarose gel electrophoresis
Caco-2 [6] = assay: Cell cycle arrest in human Caco2 cells assessed as accumulation at G2/M phase at 0.5 uM after 24 hrs by propidium iodide staining based flow cytometry (reference value: 15.19%); format: functional
Caco-2 [7] = assay: Induction of apoptosis in human Caco2 cells assessed as accumulation at pre-G1 phase at 0.5 uM after 24 hrs by Annexin V-FITC/propidium iodide staining based flow cytometry (reference value: 2.76%); format: functional
Caco-2 [8] = assay: Induction of apoptosis in human Caco2 cells assessed as early apoptotic cells at 0.5 uM after 24 hrs by Annexin V-FITC/propidium iodide staining based flow cytometry (reference value: 0.48%); format: functional
Caco-2 [9] = assay: Down regulation of Bax mRNA expression level in human Caco2 cells by qRT-PCR method; format: functional, cell-based
Caco-2 [10] = assay: Cell cycle arrest in human Caco2 cells assessed as accumulation at S phase at 0.5 uM after 24 hrs by propidium iodide staining based flow cytometry (reference value: 30.96%); format: functional
Caco-2 [11] = assay: Down regulation of Cyclin B mRNA expression level in human Caco2 cells by qRT-PCR method; format: functional, cell-based
Caco-2 [12] = assay: Upregulation of […] mRNA expression level in human Caco2 cells by qRT-PCR method; format: functional, cell-based
Caco-2 [13] = assay: Induction of apoptosis in human Caco2 cells assessed as late apoptotic cells at 0.5 uM after 24 hrs by Annexin V-FITC/propidium iodide staining based flow cytometry (reference value: 0.69%); format: functional
Caco-2 [14] = assay: Down regulation of Bec1 mRNA expression level in human Caco2 cells by qRT-PCR method; format: functional, cell-based
Caco-2 [15] = assay: Induction of apoptosis in human Caco2 cells assessed as viable cells at 0.5 uM after 24 hrs by Annexin V-FITC/propidium iodide staining based flow cytometry (reference value: 96.65%); format: functional; details: Caco-2, 24 h, read-out: Activity
Caco-2 [16] = assay: Down regulation of Caspase 8 mRNA expression level in human Caco2 cells by qRT-PCR method; format: functional, cell-based
Caco-2 [17] = assay: Cell cycle arrest in human Caco2 cells assessed as accumulation at G0/G1 phase at 0.5 uM after 24 hrs by propidium iodide staining based flow cytometry (reference value: 53.85%); format: functional
[18] = biological target: T1, DNA topoisomerase 2-alpha; assay: Inhibition of recombinant human topoisomerase 2 assessed as reduction in relaxation of supercoiled pBS-SK(+) DNA after 30 mins by agarose gel electrophoresis
[19] = biological target: T1, DNA topoisomerase 2-alpha; assay: Inhibition of recombinant human topoisomerase 2 assessed as reduction in relaxation of supercoiled pBS-SK(+) DNA at 5 uM after 30 mins by agarose gel electrophoresis
[20] = biological target: T1, DNA topoisomerase 2-alpha; assay: Inhibition of human topoisomerase 2 assessed as cleavage complex formation at 25 to 50 uM using pBS-SK(+) DNA as substrate after 60 mins by agarose gel electrophoresis
[21] = biological target: T1, DNA topoisomerase 2-alpha; assay: Inhibition of recombinant human topoisomerase 2 assessed as reduction in relaxation of supercoiled pBS-SK(+) DNA at 10 uM after 30 mins by agarose gel electrophoresis
[22] = biological target: T1, DNA topoisomerase 2-alpha; assay: Inhibition of human topoisomerase 2 assessed as cleavage complex formation at 10 uM using pBS-SK(+) DNA as substrate after 60 mins by agarose gel electrophoresis

T1 sequence (P11388 whole entry): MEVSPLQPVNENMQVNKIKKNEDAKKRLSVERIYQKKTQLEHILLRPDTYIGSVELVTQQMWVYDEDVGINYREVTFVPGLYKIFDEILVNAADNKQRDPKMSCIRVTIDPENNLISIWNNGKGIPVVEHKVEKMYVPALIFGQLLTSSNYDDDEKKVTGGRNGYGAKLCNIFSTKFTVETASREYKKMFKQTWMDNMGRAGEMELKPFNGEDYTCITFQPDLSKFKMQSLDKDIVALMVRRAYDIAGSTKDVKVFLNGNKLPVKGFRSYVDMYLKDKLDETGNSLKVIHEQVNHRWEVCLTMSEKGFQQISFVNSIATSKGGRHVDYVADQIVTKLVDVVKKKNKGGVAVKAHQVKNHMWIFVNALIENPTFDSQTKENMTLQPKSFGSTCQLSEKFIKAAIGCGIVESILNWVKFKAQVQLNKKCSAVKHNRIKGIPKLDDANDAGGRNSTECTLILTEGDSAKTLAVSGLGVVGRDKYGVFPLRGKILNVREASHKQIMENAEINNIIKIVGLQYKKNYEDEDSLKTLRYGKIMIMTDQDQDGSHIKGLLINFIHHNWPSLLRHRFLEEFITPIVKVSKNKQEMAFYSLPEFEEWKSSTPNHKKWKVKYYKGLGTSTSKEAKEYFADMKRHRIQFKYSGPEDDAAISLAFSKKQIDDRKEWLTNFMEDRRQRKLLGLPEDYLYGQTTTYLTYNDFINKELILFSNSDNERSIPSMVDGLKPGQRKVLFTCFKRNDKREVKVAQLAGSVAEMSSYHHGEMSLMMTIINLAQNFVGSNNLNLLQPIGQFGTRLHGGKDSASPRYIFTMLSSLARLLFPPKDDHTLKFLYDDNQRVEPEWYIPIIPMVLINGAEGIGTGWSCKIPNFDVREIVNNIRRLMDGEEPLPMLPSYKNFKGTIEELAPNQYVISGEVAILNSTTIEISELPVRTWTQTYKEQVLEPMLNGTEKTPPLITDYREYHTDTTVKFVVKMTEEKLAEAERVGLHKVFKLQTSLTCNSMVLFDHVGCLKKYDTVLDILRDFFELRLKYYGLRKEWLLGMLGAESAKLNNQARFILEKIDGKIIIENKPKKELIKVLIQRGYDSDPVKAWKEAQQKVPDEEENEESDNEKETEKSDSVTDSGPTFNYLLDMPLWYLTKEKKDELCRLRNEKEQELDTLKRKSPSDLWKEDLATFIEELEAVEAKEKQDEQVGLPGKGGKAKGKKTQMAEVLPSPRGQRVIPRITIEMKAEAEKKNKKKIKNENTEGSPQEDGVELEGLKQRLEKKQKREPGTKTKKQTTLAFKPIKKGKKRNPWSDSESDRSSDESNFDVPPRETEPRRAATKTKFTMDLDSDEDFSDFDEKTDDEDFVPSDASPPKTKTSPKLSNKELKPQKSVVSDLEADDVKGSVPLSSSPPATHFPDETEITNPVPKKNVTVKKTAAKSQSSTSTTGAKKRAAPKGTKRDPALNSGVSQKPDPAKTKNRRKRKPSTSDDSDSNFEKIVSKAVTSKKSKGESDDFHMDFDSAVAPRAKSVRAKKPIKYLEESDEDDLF

Row | Structure (SMILES) | pIC50 (HepG2) | pIC50 (HEp-2) | pIC50 (Caco-2 [1]; read-out: IC50) | pIC50 [2] | pIC50 (Calf thymus DNA) | DNA intercalation activity (qualitative) (Escherichia coli) | other results
1 | OCCNc1nc2ccccc2n2cnnc12 | 5.50 | 6.85 | 5.58 |  |  |  | 
2 | COc1cccc2c1C(=O)c1c(O)c3c(c(O)c1C2=O)C[C@@](O)(C(=O)CO)C[C@@H]3O[C@H]1C[C@H](N)[C@H](O)[C@H](C)O1 [DOXORUBICIN] | 6.21 | 6.29 |  | 6.06 | 4.52 | Active | pIC50 (Caco-2 [1]): 6.14
3 | COc1cccc(NC(=O)CSc2nnc3c4nncn4c4ccccc4n23)c1 | 6.30 | 6.54 | 6.41 | 6.07 | 4.41 | Active | Activity (Caco-2 [3]): 2.58%; Activity (Caco-2 [4]): Active; inhibition [5]: Active; Activity (Caco-2 [6]): 40.58%; Activity (Caco-2 [7]): 13.99%; Activity (Caco-2 [8]): 3.91%; Activity (Caco-2 [9]): Active; Activity (Caco-2 [10]): 15.19%; Activity (Caco-2 [11]): Active; Activity (Caco-2 [12]): Active; Activity (Caco-2 [13]): 7.5%; Activity (Caco-2 [14]): Active; viability at 0.5 µM (Caco-2 [15]): 84.5%; Activity (Caco-2 [16]): Active; Activity (Caco-2 [17]): 44.23%; inhibition [18]: Dose-dependent effect; inhibition [19]: inactive; inhibition [20]: inactive
4 | CCCCNc1nc2ccccc2n2cnnc12 | 6.08 | 8.00 | 5.65 | 5.71 | 4.31 | Active | 
5 | c1ccc2c(c1)nc(NC1CCCCC1)c1nncn12 | 6.20 | 6.04 | 6.34 | 6.17 | 4.40 | Active | 
6 | O=C(NNc1nc2ccccc2n2cnnc12)Nc1ccccc1 | 6.15 | 6.25 | 5.84 | 5.92 | 4.51 |  | 
7 | CCCNc1nc2ccccc2n2cnnc12 | 5.97 | 5.63 | 5.52 |  |  |  | 
8 | c1ccc(CSc2nnc3c4nncn4c4ccccc4n23)cc1 | < 4.30 | 5.27 | 4.98 |  |  |  | 
9 | c1ccc(CNc2nc3ccccc3n3cnnc23)cc1 | 5.53 | 4.39 | 5.35 |  |  |  | 
10 | S=C(NNc1nc2ccccc2n2cnnc12)Nc1ccccc1 | 6.19 | 7.00 | 5.89 | 5.53 | 4.46 | Active | 
11 | COc1ccccc1/C=N/Nc1nc2ccccc2n2cnnc12 | 5.61 | 5.66 | 5.42 |  |  |  | 
12 | COC(=O)CSc1nnc2c3nncn3c3ccccc3n12 | 5.03 | 5.51 | 5.20 |  |  |  | 
13 | COc1nc2ccccc2n2cnnc12 | 5.09 | 5.40 | 5.09 |  |  |  | 
14 | CCOC(=O)CCCSc1nnc2c3nncn3c3ccccc3n12 | 5.24 | < 4.30 | 4.83 |  |  |  | 
15 | Clc1ccccc1/C=N/Nc1nc2ccccc2n2cnnc12 | 5.00 | 6.92 | 5.94 | 5.72 | 4.28 | Active | 
16 | CSc1nnc2c3nncn3c3ccccc3n12 | 4.64 | 5.24 | < 4.30 |  |  |  | 
17 | O=C(CSc1nnc2c3nncn3c3ccccc3n12)Nc1ccc(F)cc1 | 6.12 | 6.30 | 6.10 | 6.03 | 4.36 | Active | 
18 | O=C(NNc1nc2ccccc2n2cnnc12)NC1CCCCC1 | 5.64 | 6.49 | 6.01 | 5.91 | 4.55 |  | 
19 | Sc1nnc2c3nncn3c3ccccc3n12 | 6.25 | 6.11 | 6.24 | 5.97 | 4.53 | Active | 
20 | CCOC(=O)CSc1nnc2c3nncn3c3ccccc3n12 | 6.09 | 6.44 | 5.85 | 5.67 | 4.20 |  | 
21 | CCNC(=S)NNc1nc2ccccc2n2cnnc12 | 5.72 | 5.63 | 5.46 | 5.27 |  |  | 
22 | CCOc1nc2ccccc2n2cnnc12 | 5.00 | 5.38 | 5.19 |  |  |  | 
23 | COc1cc(NS(C)(=O)=O)ccc1Nc1c2ccccc2nc2ccccc12 |  |  |  |  |  |  | inhibition [21]: Active; inhibition [22]: Active
24 | CNc1nc2ccccc2n2cnnc12 | 6.06 | 5.50 | 5.83 | 5.68 | 4.31 | Active | 
25 | Clc1cccc(Cl)c1/C=N/Nc1nc2ccccc2n2cnnc12 | 7.22 | 6.28 | 5.24 | 5.53 | 4.40 | Active | 
